Measurements from patent US9266832B2, “Compounds for the treatment of neurodegenerative diseases” (Katholieke Universiteit Levun, priority 2010, dated 2016).
pEC50: −log10 of the molar value.

System: M17-TAU P301L cells
Test: Tau-induced toxicity experiment: LDH leakage of retinoic acid incubated M17-TAU P301L cells
Type: cell-based
Details: Homo sapiens, Neuroblastoma cell, 168 h; reduction of LDH activity of retinoic acid incubated M17-TAU P301L neuroblastoma cells, 7 days
Source text: A TAU expression plasmid was constructed by sub-cloning the cDNA of human TAU-P301L (encoding for TAU with proline 301 substituted by a leucine residue) into mammalian expression vector pcDNA3.1 resulting in plasmid pcDNA3.1-TAU P301L. Plasmids pcDNA3.1 and pcDNA3.1-TAU P301L were transfected to human neuroblastoma cells ([…]; ATCC No. CRL-2267) and independent clonal lines with the plasmids stably integrated into the genome were selected. […] Expression of the TAU P301L genes in the cell lines was confirmed by Western analysis.
In degenerated or dead cells lactate dehydrogenase (LDH) is leaked out of the cells into the extracellular environment due to a loss of plasma-membrane integrity. This principle was used to determine cytotoxicity by quantifying the level of leaked LDH into the growth medium.
The detailed method for determining TAU cytotoxicity was as follows: From appropriate precultures of M17-3.1 and M17-TAU(P301L) cells were seeded at 2500 cells/cm2 in Optimem Reduced Serum without phenol red (Gibco, Cat. 31985-047) supplemented with 1% fetal calf serum, 1 mM sodium pyruvate, 1× non-essential amino acids, 500 μg/ml G418 0.5× antibiotic/antimycotic. After 3 h of incubation at 37° C./5% CO2 1 volume of Optimem Reduced Serum (same as described above; except without fetal calf serum) supplemented with 2.5 μM retinoic acid (RA) was added. The cells were further incubated for 7 days. Subsequently, LDH activity was determined using Promega Cytotox 96 Non-Radioactive cytotoxicity assay, (Cat. G1780) according the supplier's instructions.
The M17-TAU P301L cell line made it possible to assess the ability of novel compounds to counteract TAU cytotoxicity. […] These measurements were used to calculate EC50 values of table 2.

SMILES	pEC50
O=C(NCCc1c[nH]c2ccc(Cl)cc12)c1cccc(Cc2ccc(Cl)cc2)c1 [Cpd050, N-(2-(5-chloro-1H-indol-3-yl)ethyl)-3-(4-chlorobenzyl)benzamide]	7.30
O=C(NCCc1c[nH]c2ccc(Cl)cc12)c1cccc(Cc2ccccc2)c1 [Cpd010, 3-benzyl-N-(2-(5-chloro-1H-indol-3-yl)ethyl)benzamide]	7.11
O=C(NCCc1c[nH]c2ccc(Cl)cc12)c1ccc(Cc2cc(F)ccc2F)cc1 [Cpd102, N-(2-(5-chloro-1H-indol-3-yl)ethyl)-4-(2,5-difluorobenzyl)benzamide]	7.31
Cc1ccc2[nH]cc(CCNC(=O)c3ccc(Cc4cccc(F)c4)cc3)c2c1 [Cpd084, 4-(3-fluorobenzyl)-N-(2-(5-methyl-1H-indol-3-yl)ethyl)benzamide]	7.59
Cc1cccc(Oc2cccc(C(=O)NCCc3c[nH]c4ccc(Cl)cc34)c2)c1 [Cpd090, N-(2-(5-chloro-1H-indol-3-yl)ethyl)-3-(m-tolyloxy)benzamide]	7.04
O=C(NCCc1c[nH]c2ccc(Cl)cc12)c1cccc(Cc2cccc(F)c2)c1 [Cpd053, N-(2-(5-chloro-1H-indol-3-yl)ethyl)-3-(3-fluorobenzyl)benzamide]	7.77
O=C(NCCc1c[nH]c2ccc(Cl)cc12)c1ccc(Cc2cccnc2)cc1 [Cpd085, N-(2-(5-chloro-1H-indol-3-yl)ethyl)-4-(pyridin-3-ylmethyl)benzamide]	6.93
O=C(NCCc1c[nH]c2ccc(Cl)cc12)c1cccc(Oc2ccccc2)c1 [Cpd095, N-(2-(5-chloro-1H-indol-3-yl)ethyl)-3-phenoxybenzamide]	6.62
O=C(NCCc1c[nH]c2ccc(Cl)cc12)c1ccc(Cc2ccc(F)cc2)cc1 [Cpd061, N-(2-(5-chloro-1H-indol-3-yl)ethyl)-4-(4-fluorobenzyl)benzamide]	7.07
COc1ccc(Cc2cccc(C(=O)NCCc3c[nH]c4ccc(Cl)cc34)c2)cc1 [Cpd057, N-(2-(5-chloro-1H-indol-3-yl)ethyl)-3-(4-methoxybenzyl)benzamide]	6.83
O=C(NCCc1c[nH]c2ccc(Cl)cc12)c1ccc(Cc2ccccc2C(F)(F)F)cc1 [Cpd041, N-(2-(5-chloro-1H-indol-3-yl)ethyl)-4-(2-(trifluoromethyl)benzyl)benzamide]	7.10
O=C(NCCc1c[nH]c2ccc(Cl)cc12)c1cccc(CNC2CCCCC2)c1 [Cpd024, N-(2-(5-chloro-1H-indol-3-yl)ethyl)-3-((cyclohexylamino)methyl)benzamide]	6.14
O=C(NCCc1c[nH]c2ccc(Cl)cc12)c1cccc(Cc2ccc(C(F)(F)F)cc2)c1 [Cpd040, N-(2-(5-chloro-1H-indol-3-yl)ethyl)-3-(4-(trifluoromethyl)benzyl)benzamide]	6.99
O=C(NCCc1c[nH]c2ccc(Cl)cc12)c1ccc(Cc2cccs2)cc1 [Cpd079, N-(2-(5-chloro-1H-indol-3-yl)ethyl)-4-(thiophen-2-ylmethyl)benzamide]	7.09
